We go through 13 molecules from PubChem BioAssay (NCI).

Broadly, the GI50 is the concentration at which growth is held to half of that of the control. By TGI is commonly meant the concentration at which net growth stops.

Test systems include HL-60(TB) leukemia; HS 578T breast; K-562 leukemia; MDA-MB-231 breast; NCI-H226 lung; PC-3 prostate; SK-MEL-28 melanoma; SW-620 colon; T-47D breast; MDA-N.
Holding throughout (test): DTP human tumour cell line panel, 48 h

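Tested at 5 concentrations; 48 h exposure; 96-well plates; endpoints linearly interpolated, else capped at highest concentration. GI50 is the concentration that inhibits growth by half. TGI marks complete inhibition of growth.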 Some results are limits rather than exact numbers.

With `CC[C@@]1(OC(=O)CN(C)C)C(=O)OCc2c1cc1n(c2=O)Cc2cc3c(N)cccc3nc2-1`, the GI50 is 0.0226 µM in the assay on HL-60(TB) leukemia; 2.03 µM with HS 578T breast; 0.0455 µM in the assay with K-562 leukemia; 1.07 µM with MDA-MB-231 breast; 0.0233 µM with NCI-H226 lung; 0.0524 µM in the assay with PC-3 prostate. For the same molecule, the figures for the GI50 in the assay on SK-MEL-28 melanoma, in the assay with SW-620 colon and with T-47D breast were 0.297 µM, 0.0181 µM and 0.0253 µM, respectively. Also, the TGI in the assay with HL-60(TB) leukemia is 10.7 µM; with HS 578T breast, 58 µM; in the assay on K-562 leukemia, > 100 µM; in the assay on MDA-MB-231 breast, > 100 µM; in the assay on NCI-H226 lung, 0.161 µM; in the assay on PC-3 prostate, > 100 µM. In addition, the TGI with SK-MEL-28 melanoma turned out to be 4.28 µM; in the assay on SW-620 colon, 2.57 µM; in the assay with T-47D breast, 0.868 µM.

Take `COc1ccc(C(=O)O[C@H]2CC[C@@]3(C)[C@@H]4CC[C@H]5[C@]6(O)C[C@H](O)[C@@]7(O)[C@@H](CN8C[C@@H](C)CC[C@H]8[C@@]7(C)O)[C@]6(O)C[C@@]53OC24O)cc1OC`: the TGI in the assay on HS 578T breast, in the assay with K-562 leukemia, with MDA-MB-231 breast, with MDA-N, in the assay with NCI-H226 lung and with PC-3 prostate was > 100 µM in each case. For the same molecule, the total growth inhibition concentration (TGI) in the assay with SK-MEL-28 melanoma, in the assay with SW-620 colon and with T-47D breast was > 100 µM each time.

For the molecule `Nc1c(OCC(=O)O)ccc2cc(S(=O)(=O)O)ccc12`, the TGI in the assay on HL-60(TB) leukemia, with HS 578T breast, in the assay with K-562 leukemia, in the assay on MDA-MB-231 breast, in the assay on MDA-N and with NCI-H226 lung was > 100 µM throughout. Besides, the TGI with PC-3 prostate, with SK-MEL-28 melanoma, in the assay with SW-620 colon and with T-47D breast was > 100 µM in each case.

`COc1ccc(NC(=S)NNC(=O)c2nsc3ccccc23)cc1`: the TGI in the assay on HL-60(TB) leukemia was 60.8 µM; with K-562 leukemia it was > 100 µM; with SK-MEL-28 melanoma it was > 100 µM; in the assay with SW-620 colon, > 100 µM.

For the molecule `C[C@]12Cc3cnc(-c4ccccc4)nc3C[C@@H]1CC[C@@H]1[C@@H]2CC[C@@]2(C)[C@H]1CC[C@]2(C)O`, the TGI was > 100 µM in the assay with HL-60(TB) leukemia; 65.2 µM in the assay on HS 578T breast; 29.4 µM in the assay on K-562 leukemia; 73.1 µM with MDA-MB-231 breast; 48.9 µM with MDA-N; 58.1 µM in the assay with NCI-H226 lung. The TGI was 36.3 µM in the assay on PC-3 prostate, 56.9 µM in the assay on SK-MEL-28 melanoma, > 100 µM in the assay with SW-620 colon and 39.7 µM with T-47D breast.

Turning to `CCC1C(C#N)=C(O)NC(O)=C1C#N`, the TGI with NCI-H226 lung, with SK-MEL-28 melanoma and with SW-620 colon was > 100 µM each time.

As to `NC1C=NNC1=O` (configuration not stated), the concentration for total growth inhibition (TGI) in the assay with HL-60(TB) leukemia, with K-562 leukemia, with SK-MEL-28 melanoma and in the assay on SW-620 colon was > 100 µM throughout.

For `O=C1CCCC/C1=C1/SC(=Nc2ccccc2)C(=Nc2ccccc2)N1c1ccccc1`, the TGI with HL-60(TB) leukemia, with HS 578T breast, with K-562 leukemia, in the assay on MDA-MB-231 breast, in the assay with MDA-N and in the assay on NCI-H226 lung was > 100 µM throughout. The TGI in the assay on SK-MEL-28 melanoma and with T-47D breast was > 100 µM in each case.

With `COc1ccc(C(=O)NC2=C(Cl)C(=O)c3ccccc3C2=O)cc1`, the TGI in the assay with HL-60(TB) leukemia was > 100 µM; in the assay with HS 578T breast, 33.5 µM; in the assay with K-562 leukemia it was > 100 µM; in the assay with MDA-MB-231 breast it was 14.6 µM; in the assay with MDA-N it was 10.7 µM; in the assay with NCI-H226 lung, 9.32 µM. Also, the TGI amounted to 10.8 µM in the assay on PC-3 prostate, 17.9 µM in the assay on SK-MEL-28 melanoma, 3.45 µM in the assay on SW-620 colon and 3.83 µM in the assay with T-47D breast.

For the molecule `Clc1cc2ccccc2c2ccccc12`, the TGI with HL-60(TB) leukemia, in the assay on HS 578T breast, in the assay on K-562 leukemia, in the assay with MDA-MB-231 breast, in the assay on NCI-H226 lung and in the assay with PC-3 prostate was > 100 µM throughout. Further, the TGI in the assay with SK-MEL-28 melanoma, with SW-620 colon and in the assay with T-47D breast was > 100 µM in each case.

For `O=C(O)C(O)(c1ccc(-c2ccccc2)cc1)c1ccc(-c2ccccc2)cc1`, the TGI is 49.7 µM in the assay with HL-60(TB) leukemia; > 100 µM in the assay with K-562 leukemia; 79.1 µM in the assay with MDA-MB-231 breast; 34.5 µM in the assay with MDA-N; 62.6 µM in the assay with NCI-H226 lung; 70 µM in the assay with PC-3 prostate. Further, the TGI in the assay on SK-MEL-28 melanoma, with SW-620 colon and in the assay with T-47D breast was > 100 µM in each case.

With `CCOC(=O)c1nc2ccccc2n(CC)c1=O`, the concentration for total growth inhibition (TGI) with HL-60(TB) leukemia, with HS 578T breast, with K-562 leukemia, with MDA-MB-231 breast, in the assay on MDA-N and with NCI-H226 lung was > 100 µM in each case. For the same molecule, the TGI in the assay with PC-3 prostate, in the assay with SK-MEL-28 melanoma, in the assay with SW-620 colon and with T-47D breast was > 100 µM in each case.

In the case of `Clc1ccc(C2CC(c3cccc(Nc4ccncc4)c3)=NN2c2ccc(Cl)cc2)cc1` (configuration not stated), the GI50 with NCI-H226 lung is 12.4 µM; in the assay with PC-3 prostate, 1.55 µM; in the assay with SK-MEL-28 melanoma, 1.67 µM; in the assay with SW-620 colon it was 1.8 µM. Moreover, the TGI in the assay on NCI-H226 lung was found to be 38.3 µM; with PC-3 prostate, 3.08 µM; with SK-MEL-28 melanoma, 3.09 µM; in the assay with SW-620 colon, 3.6 µM.
